{
  "source": "ChEMBL document CHEMBL1201862",
  "about": "“PubChem BioAssay data set” (2004)",
  "key": {"[1]": {"molecular_target": "T1, Fatty acid synthase (Homo sapiens, UniProt P49327)", "T1 sequence (P49327 whole entry, the tested form may be a part)": "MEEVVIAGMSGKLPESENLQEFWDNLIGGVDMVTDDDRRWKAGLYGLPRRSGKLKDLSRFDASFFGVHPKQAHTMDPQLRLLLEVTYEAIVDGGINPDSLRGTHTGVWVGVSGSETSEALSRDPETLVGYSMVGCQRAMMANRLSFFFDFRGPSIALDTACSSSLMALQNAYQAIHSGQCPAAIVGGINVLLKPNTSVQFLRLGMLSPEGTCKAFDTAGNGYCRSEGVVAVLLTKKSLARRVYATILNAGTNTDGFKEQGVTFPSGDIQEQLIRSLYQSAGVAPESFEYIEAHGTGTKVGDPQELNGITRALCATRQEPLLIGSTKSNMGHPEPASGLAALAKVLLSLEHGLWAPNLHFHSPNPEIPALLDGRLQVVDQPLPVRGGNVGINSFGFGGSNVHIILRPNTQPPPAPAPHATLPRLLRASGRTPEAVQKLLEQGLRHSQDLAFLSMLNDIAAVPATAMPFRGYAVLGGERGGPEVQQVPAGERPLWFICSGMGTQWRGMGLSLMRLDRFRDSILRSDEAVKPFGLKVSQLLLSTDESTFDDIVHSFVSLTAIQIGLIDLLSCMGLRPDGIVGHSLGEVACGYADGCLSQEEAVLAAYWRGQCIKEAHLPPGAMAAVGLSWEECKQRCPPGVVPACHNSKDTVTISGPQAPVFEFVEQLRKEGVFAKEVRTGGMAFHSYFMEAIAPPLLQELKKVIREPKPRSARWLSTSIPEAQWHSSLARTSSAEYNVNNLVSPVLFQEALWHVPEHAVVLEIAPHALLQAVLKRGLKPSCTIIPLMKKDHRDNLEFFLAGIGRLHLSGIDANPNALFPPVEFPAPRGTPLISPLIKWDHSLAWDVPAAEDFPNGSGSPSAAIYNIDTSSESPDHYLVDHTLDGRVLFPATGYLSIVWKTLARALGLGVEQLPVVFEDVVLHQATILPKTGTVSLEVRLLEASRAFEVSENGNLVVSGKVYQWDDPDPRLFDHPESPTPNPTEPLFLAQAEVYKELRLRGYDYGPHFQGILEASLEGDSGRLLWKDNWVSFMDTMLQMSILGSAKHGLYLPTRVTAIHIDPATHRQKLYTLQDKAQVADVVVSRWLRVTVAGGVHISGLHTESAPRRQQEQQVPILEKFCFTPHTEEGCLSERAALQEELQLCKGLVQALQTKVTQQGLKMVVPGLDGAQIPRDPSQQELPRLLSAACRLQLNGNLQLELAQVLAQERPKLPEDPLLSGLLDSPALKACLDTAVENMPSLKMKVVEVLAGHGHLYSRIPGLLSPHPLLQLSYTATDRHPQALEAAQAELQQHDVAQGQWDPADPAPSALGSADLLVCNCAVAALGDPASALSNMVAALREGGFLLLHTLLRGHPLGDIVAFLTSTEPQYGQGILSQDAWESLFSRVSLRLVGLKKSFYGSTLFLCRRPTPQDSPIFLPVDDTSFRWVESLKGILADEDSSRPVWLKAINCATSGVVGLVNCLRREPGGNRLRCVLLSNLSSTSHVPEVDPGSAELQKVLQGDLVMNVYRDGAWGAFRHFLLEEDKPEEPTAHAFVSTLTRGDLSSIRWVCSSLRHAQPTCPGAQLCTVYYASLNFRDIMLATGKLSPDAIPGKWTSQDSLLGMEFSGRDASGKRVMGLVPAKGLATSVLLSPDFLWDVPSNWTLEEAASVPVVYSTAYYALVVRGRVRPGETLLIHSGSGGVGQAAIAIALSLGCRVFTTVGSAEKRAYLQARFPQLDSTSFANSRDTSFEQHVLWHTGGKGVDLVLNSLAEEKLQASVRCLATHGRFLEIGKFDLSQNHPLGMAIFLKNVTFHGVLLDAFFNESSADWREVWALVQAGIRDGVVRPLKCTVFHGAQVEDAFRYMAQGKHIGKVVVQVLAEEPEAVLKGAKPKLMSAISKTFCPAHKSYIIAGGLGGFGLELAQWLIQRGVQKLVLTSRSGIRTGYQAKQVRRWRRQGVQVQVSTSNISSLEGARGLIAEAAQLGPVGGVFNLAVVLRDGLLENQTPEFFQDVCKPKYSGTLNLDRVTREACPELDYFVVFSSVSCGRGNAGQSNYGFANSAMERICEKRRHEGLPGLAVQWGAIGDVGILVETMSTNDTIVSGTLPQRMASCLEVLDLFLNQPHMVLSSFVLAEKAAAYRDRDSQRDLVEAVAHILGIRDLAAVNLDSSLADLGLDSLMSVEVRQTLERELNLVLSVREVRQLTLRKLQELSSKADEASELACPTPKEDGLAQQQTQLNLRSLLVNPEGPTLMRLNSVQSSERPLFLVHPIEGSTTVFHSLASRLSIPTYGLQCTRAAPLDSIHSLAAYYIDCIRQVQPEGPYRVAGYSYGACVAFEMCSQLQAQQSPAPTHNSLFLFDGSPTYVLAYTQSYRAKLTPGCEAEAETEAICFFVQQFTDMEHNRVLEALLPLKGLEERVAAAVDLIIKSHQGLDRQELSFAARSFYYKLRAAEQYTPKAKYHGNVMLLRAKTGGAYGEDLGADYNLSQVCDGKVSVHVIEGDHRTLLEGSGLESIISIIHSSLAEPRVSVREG", "test": "FAS thioesterase domain inhibitors, dose response, biochemical, kinetic fluorescence intensity (AID 624326);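 also: rate of fluorescence rise from hydrolysis of a fluorogenic O-methyl fluorescein ester substrate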", "format": "functional"}, "[2]": {"molecular_target": "T1, Fatty acid synthase", "test": "FAS thioesterase domain inhibitors, dose response, biochemical, endpoint fluorescence intensity, uHTS hits (AID 624327);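 also: fluorescence from hydrolysis of an O-methyl fluorescein acyl ester substrate by the enzyme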", "format": "functional"}, "[3]": {"molecular_target": "T2, Corticotropin-releasing factor receptor 2/Corticotropin-releasing factor-binding protein (Homo sapiens, UniProt P24387+Q13324)", "T2 sequence (Q13324 whole entry)": "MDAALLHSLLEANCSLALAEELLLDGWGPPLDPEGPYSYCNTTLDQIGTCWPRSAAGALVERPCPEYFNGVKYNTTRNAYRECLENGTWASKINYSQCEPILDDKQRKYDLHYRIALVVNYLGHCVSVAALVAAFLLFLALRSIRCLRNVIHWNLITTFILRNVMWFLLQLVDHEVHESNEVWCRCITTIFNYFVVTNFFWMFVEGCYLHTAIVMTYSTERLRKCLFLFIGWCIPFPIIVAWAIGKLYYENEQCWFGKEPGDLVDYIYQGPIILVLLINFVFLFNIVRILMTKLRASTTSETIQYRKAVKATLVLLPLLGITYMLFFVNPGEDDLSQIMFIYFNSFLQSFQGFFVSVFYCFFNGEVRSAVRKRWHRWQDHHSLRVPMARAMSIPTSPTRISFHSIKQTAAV", "T2 sequence (P24387 whole entry)": "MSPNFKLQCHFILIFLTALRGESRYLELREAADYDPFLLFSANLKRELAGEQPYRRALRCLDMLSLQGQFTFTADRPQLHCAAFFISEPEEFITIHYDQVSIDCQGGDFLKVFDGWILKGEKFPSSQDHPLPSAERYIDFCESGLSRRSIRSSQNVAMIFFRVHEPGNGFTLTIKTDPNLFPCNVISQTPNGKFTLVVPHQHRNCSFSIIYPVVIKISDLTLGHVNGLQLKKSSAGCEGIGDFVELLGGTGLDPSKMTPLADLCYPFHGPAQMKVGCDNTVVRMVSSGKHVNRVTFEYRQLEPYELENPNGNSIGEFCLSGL", "test": "activators of CRF receptor 2 with binding protein – uHTS hits, confirmation (AID 602473)", "format": "functional", "settings": "read-out: EC50_Mean"}, "[4]": {"test_system": "SN12K1", "test": "cells", "format": "functional", "settings": "Homo sapiens"}, "[5]": {"test_system": "P388", "test": "cells", "format": "functional", "settings": "Mus musculus"}, "[6]": {"test_system": "P388/ADR", "test": "cells", "format": "functional", "settings": "Mus musculus"}, "[7]": {"test": "C. albicans growth with fluconazole, confirmation, fluorescence, retest (AID 2467)", "format": "functional, cell-based"}, "[8]": {"test": "NIH-3T3 fibroblast cytotoxicity, dose response, cytotoxicity control, cell-based, fluorescence, Alamar Blue, secondary assay (AID 2327);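 also: NIH-3T3 mouse fibroblasts cultured with fluconazole at 8 µg/mL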", "format": "functional"}, "[9]": {"test": "inhibitors of clade B AD8 Env fusion, dose response, cell-based, cherry-pick (AID 652062);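 also: potency is for inhibitors of fusion seen as a drop in luminescence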", "format": "functional"}, "[10]": {"test": "inhibitors of HIV Env-driven cell fusion, dose response, cherry-pick (AID 652057)", "format": "functional, cell-based"}, "[11]": {"test_system": "BJ", "test": "cytotoxicity toward BJ-TERT-LT-ST fibroblasts, dose response, cell-based, RAS-independent, luminescence (AID 1935);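 also: BJ fibroblasts immortalized with TERT plus LT and ST oncogenes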", "format": "functional", "settings": "Homo sapiens"}, "[12]": {"test_system": "BJ", "test": "cytotoxicity toward BJ-TERT fibroblasts, dose response, cell-based, RAS-independent, luminescence (AID 1933)", "format": "functional", "settings": "Homo sapiens"}, "[13]": {"test": "cytotoxicity toward DRD oncogenic fibroblasts, dose response, cell-based, non-viral oncogenic, luminescence (AID 1934)", "format": "functional", "settings": "Homo sapiens"}, "[14]": {"test_system": "BJ", "test": "cells", "format": "functional, cell-based", "settings": "Homo sapiens"}},
  "note": "Calls of active or inactive are those of the source.",
  "data": [
    {"smiles": "N#Cc1cc2sc3nnc(-c4ccncc4)n3c2cc1C#N", "values": [
      {"measurement": "IC50", "setting": "[1]", "value": "4.69 µM (active)"},
      {"measurement": "IC50", "setting": "[2]", "value": "3.82 µM (active)"}
    ]},
    {"smiles": "CCCNC(=O)/C(=C/c1cn(S(=O)(=O)N(C)C)c2ccccc12)NC(=O)c1ccc(OC)cc1", "values": [
      {"measurement": "EC50", "setting": "[3]", "value": "4.01 µM (active)"},
      {"measurement": "IC50", "setting": "[1]", "value": "6.75 µM (active)"},
      {"measurement": "IC50", "setting": "[2]", "value": "4.86 µM (active)"}
    ]},
    {"smiles": "CCCCS(=N)(=O)CC[C@H](N)C(=O)O", "note": "(stereo not given in full) [BUTHIONINE SULFOXIME]", "values": [
      {"measurement": "GI50", "setting": "[4]", "value": "3720 µM (inactive)"},
      {"measurement": "GI50", "setting": "[5]", "value": "2250 µM (inactive)"},
      {"measurement": "GI50", "setting": "[6]", "value": "> 5000 µM (inactive)"}
    ]},
    {"smiles": "COc1cc(/C=C/c2ccc(OC)c(OC)c2)oc(=O)c1", "values": [
      {"measurement": "GI50", "setting": "[4]", "value": "> 183 µM (inactive)"},
      {"measurement": "GI50", "setting": "[5]", "value": "96.4 µM (inactive)"},
      {"measurement": "GI50", "setting": "[6]", "value": "> 183 µM (inactive)"}
    ]},
    {"smiles": "COc1cc2ccccc2cc1C(=O)N(CCN(C)C)c1nc2ccc(Br)cc2s1", "values": [
      {"measurement": "EC50", "setting": "[7]", "value": "> 38 µM (not active)"},
      {"measurement": "EC50", "setting": "[8]", "value": "101 µM (active)"}
    ]},
    {"smiles": "COC(=O)C1CCN(Cc2c(C(=O)N3C[C@@H](C)O[C@@H](C)C3)nc3ccc(Cl)cn23)CC1", "values": [
      {"measurement": "EC50", "setting": "[7]", "value": "> 38 µM (not active)"},
      {"measurement": "EC50", "setting": "[8]", "value": "> 150 µM (inactive)"}
    ]},
    {"smiles": "O=C(C[C@H]1C=C[C@@H](NC(=O)Nc2ccccc2F)[C@@H](CO)O1)NCc1ccc(Cl)cc1", "values": [
      {"measurement": "AC50", "setting": "[9]", "value": "9.13 µM (active)"},
      {"measurement": "AC50", "setting": "[10]", "value": "3.07 µM (active)"}
    ]},
    {"smiles": "CCN1CCCC(NCc2c3ccccc3c(CNC3CCCN(CC)C3)c3ccccc23)C1", "note": "(stereo not given)", "values": [
      {"measurement": "GI50", "setting": "[4]", "value": "8.32 µM (inactive)"},
      {"measurement": "GI50", "setting": "[5]", "value": "2.64 µM (inactive)"},
      {"measurement": "GI50", "setting": "[6]", "value": "15.7 µM (inactive)"}
    ]},
    {"smiles": "CC(C)NC(=O)OCc1c(CO)c2c(n1C)-c1ccccc1CC2", "values": [
      {"measurement": "GI50", "setting": "[4]", "value": "18.1 µM (inactive)"},
      {"measurement": "GI50", "setting": "[5]", "value": "7.59 µM (inactive)"},
      {"measurement": "GI50", "setting": "[6]", "value": "6.9 µM (inactive)"}
    ]},
    {"smiles": "Oc1c(Cl)cc(CN2CCCCC2)c2cccnc12", "values": [
      {"measurement": "EC50", "setting": "[11]", "value": "76.1 µM (inconclusive)"},
      {"measurement": "EC50", "setting": "[12]", "value": "1.39 µM (active)"},
      {"measurement": "EC50", "setting": "[13]", "value": "53.1 µM (inconclusive)"},
      {"measurement": "EC50", "setting": "[14]", "value": "25.9 µM (inconclusive)"}
    ]},
    {"smiles": "O=NN(CCCl)C(=O)N[C@H]1CC[C@@H](O)CC1", "values": [
      {"measurement": "GI50", "setting": "[4]", "value": "28.2 µM (inactive)"},
      {"measurement": "GI50", "setting": "[5]", "value": "3.76 µM (inactive)"},
      {"measurement": "GI50", "setting": "[6]", "value": "3.41 µM (inactive)"}
    ]}
  ]
}
